Results reported in patent US20250032525A1 (priority 2021, published 2025).
Where two headings read alike, the source gives them in different places.

Experiments:
Brcal^−/−;p53^−/− tumors = conditions: cited from earlier work
UO-31 [1] = conditions: UO-31, NCI-60 database, sulforhodamine B; read-out: Cytotoxic IC50; cited from earlier work
MDA-MB-231 [2] = conditions: MDA-MB-231, NCI-60 database, sulforhodamine B; read-out: Cytotoxic IC50; cited from earlier work
SW-620 = conditions: SW-620, NCI-60 database, sulforhodamine B; read-out: Cytotoxic IC50; cited from earlier work
HS 578T = conditions: NCI-60 database, sulforhodamine B, read-out: Cytotoxic IC50; cited from earlier work
CCRF-CEM = conditions: NCI-60 database, sulforhodamine B, read-out: Cytotoxic IC50; cited from earlier work
RXF 393 = conditions: RXF 393, NCI-60 database, sulforhodamine B; read-out: Cytotoxic IC50; cited from earlier work
HL-60(TB) = conditions: NCI-60 database, sulforhodamine B, read-out: Cytotoxic IC50; cited from earlier work
[3] = tested on: patient-derived lung adenocarcinoma xenografts; assay: Patient-derived xenograft (PDX) model; assay type: in vivo, NSG mice; conditions: single treatment; LiPyDau 0.5 mg/kg, DOX 2 mg/kg, paclitaxel 12 mg/kg; 7 days
Description: A piece from the tumor tissue was transplanted subcutaneously into the right flank and propagated in NOD.Cg-Prkdc^scid Il2rg^tm1Wjl/SzJ (NSG) mice for 7 months. After the xenografted tumor reached 1000 mm^3, tumor pieces were retransplanted subcutaneously into the right flank of 20 additional NSG mice, which were given a single treatment with various chemotherapeutics or LiPyDau. Every treatment group consists of 5 animals. After daily monitoring of the tumor volume for one week, the mice were sacrificed and the cytotoxicity of the treatments was investigated on tissue slices by image analysis.
For treatment, tumor pieces were engrafted subcutaneously.

MDA-MB-435 [4] = conditions: MDA-MB-435, NCI-60 database, sulforhodamine B; read-out: Cytotoxic IC50; cited from earlier work
MCF7 = conditions: MCF7, NCI-60 database, sulforhodamine B; read-out: Cytotoxic IC50; cited from earlier work
NCI-H226 = conditions: NCI-H226, NCI-60 database, sulforhodamine B; read-out: Cytotoxic IC50; cited from earlier work
COLO 205 = conditions: COLO 205, NCI-60 database, sulforhodamine B; read-out: Cytotoxic IC50; cited from earlier work
4T1-LUC mammary tumor = assay: Mouse 4T1 breast cancer model; assay type: in vivo, BALB/c mice; conditions: 1 mg/kg LiPyDau, 5 mg/kg DOX, day 12 and 24; endpoint day 33
Description: Mouse melanoma (B16), lung (Lewis lung carcinoma, LLC) and breast (4T1-LUC) cancer cell lines were used to establish allograft tumors for drug testing. 5×10^5 B16 or 2×10^5 LLC cells were inoculated subcutaneously in 200 μl serum-free culture media. 4T1-LUC tumors were established by injecting 1×10^6 cells in 20 μl serum-free culture media through the nipple directly to the breast tissue of 8 weeks old BALB/c mice on day 0). […] For the B16, LLC and 4T1-LUC tumor models 4, 6 and 6 mice were treated with LiPyDau while 4, 3 and 6 animals were in the saline treated groups, respectively.
Growth of 4T1-LUC tumor was monitored by bioluminescence imaging. Images were taken 10 minutes after tail vein injection of 150 mg/kg dose of D-luciferin into the mouse.

HOP-62 = conditions: HOP-62, NCI-60 database, sulforhodamine B; read-out: Cytotoxic IC50; cited from earlier work
CAKI-1 = conditions: CAKI-1, NCI-60 database, sulforhodamine B; read-out: Cytotoxic IC50; cited from earlier work
HCT-15 = assay: In vitro cytotoxicity (PrestoBlue); assay type: cell-based, human; conditions: HCT-15, 72 h, read-out: Cytotoxic IC50
Text: (§1) Experiments were repeated at least 3 times.

HT29 = assay: In vitro cytotoxicity (PrestoBlue); assay type: cell-based, human; conditions: HT29, 72 h, read-out: Cytotoxic IC50
Text: as §1

[5] = In vivo toxicity (dose-finding) studies; set-up: species or system FVB mice; conditions: 0.25 mg/kg given repeatedly, later experiments
MDA-MB-231 [6] = assay: In vitro cytotoxicity (PrestoBlue); conditions: Homo sapiens, MDA-MB-231, 72 h, read-out: Cytotoxic IC50
Description: Cells were seeded in 40 μl medium on 384 well plates by an automatic liquid handling machine (Hamilton StarLet) in a density of 2500 cells/well. Adherent cells were cultured for 24 h before the addition of the compounds, while drugs were added to non-adherent cells 2 h after cell seeding. The drugs were serially diluted, and dispensed in an additional 20 μl. Cells were incubated for an additional 72 h, cytotoxicity was assessed by the PrestoBlue viability reagent (Thermo Fisher). Experiments were repeated at least 3 times.

[7] = tested on: panel of cell lines of various tissue of origin; assay: In vitro cytotoxicity, panel of cell lines (PrestoBlue); assay type: cell-based, human; conditions: for IC50: Homo sapiens
Text: as §1

[8] = tested on: MCF-7 human breast adenocarcinoma cells; conditions: reported by Mező; cited from earlier work
PANC-1 = assay: In vitro cytotoxicity (PrestoBlue); assay type: cell-based; conditions: Homo sapiens, PANC-1, 72 h; read-out: Cytotoxic IC50
Text: as §1

SK-MEL-28 = assay: In vitro cytotoxicity (PrestoBlue); assay type: cell-based; conditions: Homo sapiens, SK-MEL-28, 72 h; read-out: Cytotoxic IC50
Text: as §1

MDA-MB-435 [9] = assay: In vitro cytotoxicity (PrestoBlue); assay type: cell-based; conditions: Homo sapiens, MDA-MB-435, 72 h; read-out: Cytotoxic IC50
Text: as §1

HCT-116 = assay: In vitro cytotoxicity (PrestoBlue); assay type: cell-based; conditions: Homo sapiens, HCT-116, 72 h; read-out: Cytotoxic IC50
Text: as §1

UO-31 [10] = assay: In vitro cytotoxicity (PrestoBlue); assay type: cell-based; conditions: Homo sapiens, UO-31, 72 h; read-out: Cytotoxic IC50
Text: as §1

COc1cccc2c1C(=O)c1c(O)c3c(c(O)c1C2=O)C[C@@](O)(C(=O)CO)C[C@@H]3O[C@H]1C[C@H](N)[C@H](O)[C@H](C)O1 [DOX, doxorubicin]
Outcome of treatment at MTD (Brcal^−/−;p53^−/− tumors; DOX 5 mg/kg, PLD 8 mg/kg, FIG. 10 from Füredi et al.): all tumors developed resistance
Maximum tolerable dose (MTD) (Brcal^−/−;p53^−/− tumors; iv., FVB mice with Brcal^−/−;p53^−/− tumors): 5 mg/kg
IC50 (UO-31 [1]): 553 nM
IC50 (MDA-MB-231 [2]): 383 nM
IC50 (SW-620): 70.1 nM
IC50 (HS 578T): 188 nM
IC50 (CCRF-CEM): 37.2 nM
IC50 (RXF 393): 160 nM
IC50 (HL-60(TB)): 62.4 nM
Tumor growth [3]: failed to exert any effect on tumor growth
IC50 (MDA-MB-435 [4]): 258 nM
IC50 (MCF7): 15.6 nM
IC50 (NCI-H226): 52.4 nM
IC50 (COLO 205): 158 nM
Tumor growth / tumor cell viability (4T1-LUC mammary tumor): small but significant effect on the growth of tumors
IC50 (HOP-62): 60.4 nM
IC50 (CAKI-1): 190 nM

COc1cccc2c1C(=O)c1c(O)c3c(c(O)c1C2=O)C[C@@](O)(C(C)=O)C[C@@H]3O[C@H]1C[C@H]2[C@H](OC3CCCN32)[C@H](C)O1 (some centres unmarked) [PyDau, 2-deamino-2-pyrrolino-daunorubicin]
IC50 (HCT-15): 2.42 nM
IC50 (HCT-15; Homo sapiens): 2.86 nM
IC50 (HT29): 3.53 nM
IC50 (HT29; Homo sapiens, HT-29, 72 h): 3.05 nM
Toxicity when given repeatedly [5]: still toxic
IC50 (MDA-MB-231 [6]): 1.09 nM
IC50 ([7]; average IC50 within the breast group, read-out: Cytotoxic IC50, av. breast): 3.23 nM
IC50 ([7]; average IC50 within the colorectal group, read-out: Cytotoxic IC50, av. colorectal): 3.39 nM
IC50 ([7]; average IC50 within the leukaemia group, read-out: Cytotoxic IC50, av. leukaemia): 0.57 nM
IC50 ([7]; average IC50 within the lung group, read-out: Cytotoxic IC50, av. lung): 4.21 nM
IC50 ([7]; average IC50 within the melanoma group, read-out: Cytotoxic IC50, av. melanoma): 4.08 nM
IC50 ([7]; average IC50 within the ovarian group, read-out: Cytotoxic IC50, av. ovarian): 1.43 nM
IC50 ([7]; average IC50 within the pancreatic group, read-out: Cytotoxic IC50, av. pancreatic): 3.23 nM
IC50 ([7]; average IC50 within the prostate group, read-out: Cytotoxic IC50, av. prostatic): 1.93 nM
IC50 ([7]; average IC50 within the renal group, read-out: Cytotoxic IC50, av. renal): 5.2 nM
IC50 ([7]; panel of cell lines, FIG. 1, read-out: IC50 values ranging across every cell line of the panel): 0.23 to 14.3 nM
IC50 ([7]; panel of cell lines, typical range, read-out: IC50 values, typically): 1 to 10 nM
Effectiveness against multidrug resistant cells ([7]; Pgp expressing multidrug resistant HCT-15 and NCI/ADR-RES cells): effective
IC50 [8]: 0.2 nM
IC50 (PANC-1): 1.77 nM
IC50 (SK-MEL-28): 6.87 nM
IC50 (MDA-MB-435 [9]): 1.86 nM
IC50 (HCT-116): 3 nM
IC50 (UO-31 [10]): 1.43 nM
